{"source": "PubChem BioAssay AID1259407", "about": "(Chemical Carcinogenesis Research Information System (CCRIS), 2018)", "system": "CCRIS mutagenicity, Ames/micronucleus/aberration tests", "assay": "CCRIS mutagenicity studies", "key": {"[1]": {"details": "Test System: AMES SALMONELLA TYPHIMURIUM, Strain/Indicator: TA98, Metabolic Activation: NONE, Method: STANDARD PLATE"}, "[2]": {"details": "Test System: AMES SALMONELLA TYPHIMURIUM, Strain/Indicator: TA100, Metabolic Activation: NONE, Method: STANDARD PLATE"}, "[3]": {"details": "Test System: AMES SALMONELLA TYPHIMURIUM, Strain/Indicator: TA98, Metabolic Activation: NONE, Method: PREINCUBATION"}, "[4]": {"details": "Test System: AMES SALMONELLA TYPHIMURIUM, Strain/Indicator: TA100, Metabolic Activation: NONE, Method: PREINCUBATION"}, "[5]": {"details": "Test System: AMES SALMONELLA TYPHIMURIUM, Strain/Indicator: TA1535, Metabolic Activation: NONE, Method: PREINCUBATION"}}, "note": "Activity calls are given as the source filed them. No rule for the calls is given here.", "data": [{"smiles": "Nc1cc2[nH]c3ccccc3c2cc1[N+](=O)[O-]", "values": [{"measurement": "mutagenic call", "setting": "[1]", "value": "inactive; negative"}, {"measurement": "mutagenic call", "setting": "Test System: AMES SALMONELLA TYPHIMURIUM, Strain/Indicator: TA98, Metabolic Activation: RAT, LIVER, S-9, PHENOBARBITAL, Method: STANDARD PLATE", "value": "active; positive"}, {"measurement": "mutagenic call", "setting": "[2]", "value": "inactive; negative"}, {"measurement": "mutagenic call", "setting": "Test System: AMES SALMONELLA TYPHIMURIUM, Strain/Indicator: TA100, Metabolic Activation: RAT, LIVER, S-9, PHENOBARBITAL, Method: STANDARD PLATE", "value": "active; positive"}, {"measurement": "mutagenic call", "setting": "Test System: AMES SALMONELLA TYPHIMURIUM, Strain/Indicator: TA1537, Metabolic Activation: NONE, Method: STANDARD PLATE", "value": "inactive; negative"}, {"measurement": "mutagenic call", "setting": "Test System: AMES SALMONELLA TYPHIMURIUM, Strain/Indicator: TA1537, Metabolic Activation: RAT, LIVER, S-9, PHENOBARBITAL, Method: STANDARD PLATE", "value": "active; positive"}, {"measurement": "mutagenic call", "setting": "Test System: AMES SALMONELLA TYPHIMURIUM, Strain/Indicator: TA1538, Metabolic Activation: NONE, Method: STANDARD PLATE", "value": "inactive; negative"}, {"measurement": "mutagenic call", "setting": "Test System: AMES SALMONELLA TYPHIMURIUM, Strain/Indicator: TA1538, Metabolic Activation: RAT, LIVER, S-9, PHENOBARBITAL, Method: STANDARD PLATE", "value": "active; positive"}, {"measurement": "mutagenic call", "setting": "Test System: AMES SALMONELLA TYPHIMURIUM, Strain/Indicator: TA1977, Metabolic Activation: NONE, Method: STANDARD PLATE", "value": "inactive; negative"}, {"measurement": "mutagenic call", "setting": "Test System: AMES SALMONELLA TYPHIMURIUM, Strain/Indicator: TA1977, Metabolic Activation: RAT, LIVER, S-9, PHENOBARBITAL, Method: STANDARD PLATE", "value": "inactive; negative"}]}, {"smiles": "O=C(N=c1sn(C(=O)c2ccc([N+](=O)[O-])cc2)c2ccccc12)c1ccc([N+](=O)[O-])cc1", "values": [{"measurement": "mutagenic call", "setting": "Test System: AMES SALMONELLA TYPHIMURIUM, Strain/Indicator: TA100, Metabolic Activation: S-9, Method: STANDARD PLATE", "value": "active; positive"}]}, {"smiles": "O=Nc1ccc2ccc3c4c(cc5ccc1c2c53)CCCC4", "values": [{"measurement": "mutagenic call", "setting": "[1]", "value": "active; positive"}]}, {"smiles": "CC1Cc2cccc3c2N1C(C)C3.CC1Cc2cccc3c2N1C(C)C3.[Cl-].[Cl-].[Cl-].[Cl-].[Pt+2].[Pt+2]", "note": "(stereo not given)", "values": [{"measurement": "mutagenic call", "setting": "Test System: AMES SALMONELLA TYPHIMURIUM, Strain/Indicator: TA92, Metabolic Activation: NONE, Method: STANDARD PLATE", "value": "inactive; negative"}, {"measurement": "mutagenic call", "setting": "[1]", "value": "inactive; negative"}, {"measurement": "mutagenic call", "setting": "[2]", "value": "inactive; negative"}, {"measurement": "mutagenic call", "setting": "Test System: AMES SALMONELLA TYPHIMURIUM, Strain/Indicator: TA2410, Metabolic Activation: NONE, Method: STANDARD PLATE", "value": "inactive; negative"}, {"measurement": "mutagenic call", "setting": "Test System: E. COLI, Strain/Indicator: TM6, Metabolic Activation: NONE, Method: STANDARD PLATE", "value": "inactive; negative"}, {"measurement": "mutagenic call", "setting": "Test System: E. COLI, Strain/Indicator: TM9, Metabolic Activation: NONE, Method: STANDARD PLATE", "value": "inactive; negative"}]}, {"smiles": "Cc1cccc(C)c1N=Nc1c(O)ccc2ccccc12", "values": [{"measurement": "mutagenic call", "setting": "[1]", "value": "inactive; negative"}, {"measurement": "mutagenic call", "setting": "Test System: AMES SALMONELLA TYPHIMURIUM, Strain/Indicator: TA98, Metabolic Activation: RAT, LIVER, S-9, Method: STANDARD PLATE", "value": "inactive; negative"}, {"measurement": "mutagenic call", "setting": "[2]", "value": "inactive; negative"}, {"measurement": "mutagenic call", "setting": "Test System: AMES SALMONELLA TYPHIMURIUM, Strain/Indicator: TA100, Metabolic Activation: RAT, LIVER, S-9, Method: STANDARD PLATE", "value": "inactive; negative"}]}, {"smiles": "c1cc2c3c(c4c(ccc5ccccc54)cc3c1)[C@H]1O[C@@H]21", "values": [{"measurement": "mutagenic call", "setting": "[3]", "value": "active; positive"}, {"measurement": "mutagenic call", "setting": "[1]", "value": "active; positive"}, {"measurement": "mutagenic call", "setting": "Test System: AMES SALMONELLA TYPHIMURIUM, Strain/Indicator: TA98, Metabolic Activation: RAT, LIVER, S-9, AROCLOR 1254, Method: STANDARD PLATE", "value": "active; positive"}, {"measurement": "mutagenic call", "setting": "Test System: CHINESE HAMSTER OVARY, Strain/Indicator: V-79/6-THIOGUANINE, Metabolic Activation: NONE, Method: FLASK ASSAY", "value": "active; positive"}]}, {"smiles": "[Cl][V]([Cl])[Cl]", "values": [{"measurement": "mutagenic call", "setting": "[3]", "value": "inactive; negative"}, {"measurement": "mutagenic call", "setting": "Test System: AMES SALMONELLA TYPHIMURIUM, Strain/Indicator: TA98, Metabolic Activation: RAT LIVER S-9, PHENOBARBITAL AND BETA-NAPHTHOFLAVONE, Method: PREINCUBATION", "value": "inactive; negative"}, {"measurement": "mutagenic call", "setting": "[4]", "value": "inactive; negative"}, {"measurement": "mutagenic call", "setting": "Test System: AMES SALMONELLA TYPHIMURIUM, Strain/Indicator: TA100, Metabolic Activation: RAT LIVER S-9, PHENOBARBITAL AND BETA-NAPHTHOFLAVONE, Method: PREINCUBATION", "value": "inactive; negative"}, {"measurement": "mutagenic call", "setting": "[5]", "value": "inactive; negative"}, {"measurement": "mutagenic call", "setting": "Test System: AMES SALMONELLA TYPHIMURIUM, Strain/Indicator: TA1535, Metabolic Activation: RAT LIVER S-9, PHENOBARBITAL AND BETA-NAPHTHOFLAVONE, Method: PREINCUBATION", "value": "inactive; negative"}, {"measurement": "mutagenic call", "setting": "Test System: AMES SALMONELLA TYPHIMURIUM, Strain/Indicator: TA1537, Metabolic Activation: NONE, Method: PREINCUBATION", "value": "inactive; negative"}, {"measurement": "mutagenic call", "setting": "Test System: AMES SALMONELLA TYPHIMURIUM, Strain/Indicator: TA1537, Metabolic Activation: RAT LIVER S-9, PHENOBARBITAL AND BETA-NAPHTHOFLAVONE, Method: PREINCUBATION", "value": "inactive; negative"}, {"measurement": "mutagenic call", "setting": "Test System: AMES SALMONELLA TYPHIMURIUM, Strain/Indicator: TA1538, Metabolic Activation: NONE, Method: PREINCUBATION", "value": "inactive; negative"}, {"measurement": "mutagenic call", "setting": "Test System: AMES SALMONELLA TYPHIMURIUM, Strain/Indicator: TA1538, Metabolic Activation: RAT LIVER S-9, PHENOBARBITAL AND BETA-NAPHTHOFLAVONE, Method: PREINCUBATION", "value": "inactive; negative"}, {"measurement": "mutagenic call", "setting": "Test System: E.COLI, Strain/Indicator: WP2UVRA, Metabolic Activation: NONE, Method: PREINCUBATION", "value": "inactive; negative"}, {"measurement": "mutagenic call", "setting": "Test System: E.COLI, Strain/Indicator: WP2UVRA, Metabolic Activation: RAT LIVER S-9, PHENOBARBITAL AND BETA-NAPHTHOFLAVONE, Method: PREINCUBATION", "value": "inactive; negative"}]}, {"smiles": "CC(C)(C)OOC(C)(C)CCC(C)(C)OOC(C)(C)C", "values": [{"measurement": "mutagenic call", "setting": "Test System: AMES SALMONELLA TYPHIMURIUM, Strain/Indicator: TA97, Metabolic Activation: HAMSTER, LIVER, S-9, AROCLOR 1254 (10 OR 30%), Method: PREINCUBATION", "value": "inactive; negative"}, {"measurement": "mutagenic call", "setting": "Test System: AMES SALMONELLA TYPHIMURIUM, Strain/Indicator: TA97, Metabolic Activation: NONE, Method: PREINCUBATION", "value": "inactive; negative"}, {"measurement": "mutagenic call", "setting": "Test System: AMES SALMONELLA TYPHIMURIUM, Strain/Indicator: TA97, Metabolic Activation: RAT, LIVER, S-9, AROCLOR 1254 (10 OR 30%), Method: PREINCUBATION", "value": "inactive; negative"}, {"measurement": "mutagenic call", "setting": "Test System: AMES SALMONELLA TYPHIMURIUM, Strain/Indicator: TA98, Metabolic Activation: HAMSTER, LIVER, S-9, AROCLOR 1254 (10 OR 30%), Method: PREINCUBATION", "value": "inactive; negative"}, {"measurement": "mutagenic call", "setting": "[3]", "value": "inactive; negative"}, {"measurement": "mutagenic call", "setting": "Test System: AMES SALMONELLA TYPHIMURIUM, Strain/Indicator: TA98, Metabolic Activation: RAT, LIVER, S-9, AROCLOR 1254 (10 OR 30%), Method: PREINCUBATION", "value": "inactive; negative"}, {"measurement": "mutagenic call", "setting": "Test System: AMES SALMONELLA TYPHIMURIUM, Strain/Indicator: TA100, Metabolic Activation: HAMSTER, LIVER, S-9, AROCLOR 1254 (10 OR 30%), Method: PREINCUBATION", "value": "inactive; negative"}, {"measurement": "mutagenic call", "setting": "[4]", "value": "inactive; negative"}, {"measurement": "mutagenic call", "setting": "Test System: AMES SALMONELLA TYPHIMURIUM, Strain/Indicator: TA100, Metabolic Activation: RAT, LIVER, S-9, AROCLOR 1254 (10 OR 30%), Method: PREINCUBATION", "value": "inactive; negative"}, {"measurement": "mutagenic call", "setting": "Test System: AMES SALMONELLA TYPHIMURIUM, Strain/Indicator: TA1535, Metabolic Activation: HAMSTER, LIVER, S-9, AROCLOR 1254 (10 OR 30%), Method: PREINCUBATION", "value": "inactive; negative"}, {"measurement": "mutagenic call", "setting": "[5]", "value": "inactive; negative"}, {"measurement": "mutagenic call", "setting": "Test System: AMES SALMONELLA TYPHIMURIUM, Strain/Indicator: TA1535, Metabolic Activation: RAT, LIVER, S-9, AROCLOR 1254 (10 OR 30%), Method: PREINCUBATION", "value": "inactive; negative"}]}]}
